# Publication PMC12670405, “Second-Generation AURKA-Targeting PROTACs: Structural Optimization toward in Vivo Degradation in Neuroblastoma” (Journal of Medicinal Chemistry, 2025)
# How the values were obtained:
# Test in all cases: KINOMEscan scanMAX
# Format in all cases: binding
# Conditions in all cases: read-out: Percent Control
# CLK2 = target: T1, CLK2 (Homo sapiens, UniProt P49760)
# T1 construct: purchased Eurofins Discovery (DiscoverX KINOMEscan scanMAX)
# Experimental: (§1) The kinome-wide binding assay was performed by Eurofins Discovery using the scanMAX screening platform. More information can be found on the Eurofins Discovery Web site.
# LIMK1 = target: T2, LIMK1 (Homo sapiens, UniProt P53667)
# T2 construct: purchased Eurofins Discovery (DiscoverX KINOMEscan scanMAX)
# Experimental: as §1
# TRPM6 = target: T3, TRPM6 (Homo sapiens, UniProt Q9BX84)
# T3 construct: purchased Eurofins Discovery (DiscoverX KINOMEscan scanMAX)
# Experimental: as §1
# MKNK1 = target: T4, MKNK1 (Homo sapiens, UniProt Q9BUB5)
# T4 construct: purchased Eurofins Discovery (DiscoverX KINOMEscan scanMAX)
# T4 sequence (Q9BUB5 whole entry): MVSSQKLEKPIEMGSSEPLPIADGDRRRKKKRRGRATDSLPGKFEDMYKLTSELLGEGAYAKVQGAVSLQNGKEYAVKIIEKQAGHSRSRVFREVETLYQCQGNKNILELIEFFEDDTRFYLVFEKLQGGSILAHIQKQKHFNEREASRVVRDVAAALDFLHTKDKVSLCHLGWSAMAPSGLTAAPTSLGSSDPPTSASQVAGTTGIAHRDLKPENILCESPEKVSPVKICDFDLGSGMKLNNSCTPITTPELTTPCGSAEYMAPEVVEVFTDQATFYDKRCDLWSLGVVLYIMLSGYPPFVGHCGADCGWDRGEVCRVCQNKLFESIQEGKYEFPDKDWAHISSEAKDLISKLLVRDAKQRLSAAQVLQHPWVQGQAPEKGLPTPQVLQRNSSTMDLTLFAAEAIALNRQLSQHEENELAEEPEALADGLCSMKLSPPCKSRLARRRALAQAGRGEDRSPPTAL
# Experimental: as §1
# RIOK3 = target: T5, RIOK3 (Homo sapiens, UniProt O14730)
# T5 construct: purchased Eurofins Discovery (DiscoverX KINOMEscan scanMAX)
# Experimental: as §1
# PRKCD = target: T6, PRKCD (Homo sapiens, UniProt Q05655)
# T6 construct: purchased Eurofins Discovery (DiscoverX KINOMEscan scanMAX)
# Experimental: as §1
# [1] = target: T7, RSK1(Kin.Dom.1-N-terminal) (Homo sapiens, UniProt Q15418)
# T7 construct: RSK1(Kin.Dom.1-N-terminal); purchased Eurofins Discovery (DiscoverX KINOMEscan scanMAX)
# T7 sequence (Q15418 1-391 limits assumed): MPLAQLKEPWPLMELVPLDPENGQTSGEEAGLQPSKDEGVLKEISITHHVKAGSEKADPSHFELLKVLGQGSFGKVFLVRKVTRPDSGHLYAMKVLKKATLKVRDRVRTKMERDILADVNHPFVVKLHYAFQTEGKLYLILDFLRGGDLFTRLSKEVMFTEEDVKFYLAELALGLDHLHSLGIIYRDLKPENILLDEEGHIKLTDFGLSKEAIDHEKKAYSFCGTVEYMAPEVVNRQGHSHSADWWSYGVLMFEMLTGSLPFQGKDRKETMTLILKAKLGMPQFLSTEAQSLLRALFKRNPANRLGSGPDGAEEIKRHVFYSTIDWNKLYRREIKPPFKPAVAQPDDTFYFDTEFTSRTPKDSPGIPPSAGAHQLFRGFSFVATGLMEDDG
# Experimental: as §1
# [2] = target: T8, RSK4(Kin.Dom.1-N-terminal) (Homo sapiens, UniProt Q9UK32)
# T8 construct: RSK4(Kin.Dom.1-N-terminal); purchased Eurofins Discovery (DiscoverX KINOMEscan scanMAX)
# Experimental: as §1
# [3] = target: T9, EGFR(L747-S752del, P753S) (Homo sapiens, UniProt P00533, DEL747-752/P753S)
# T9 construct: purchased Eurofins Discovery (DiscoverX KINOMEscan scanMAX)
# Experimental: as §1
# RET = target: T10, RET (Homo sapiens, UniProt P07949)
# T10 construct: purchased Eurofins Discovery (DiscoverX KINOMEscan scanMAX)
# Experimental: as §1
# PCTK2 = target: T11, PCTK2 (Homo sapiens, UniProt Q00537)
# T11 construct: purchased Eurofins Discovery (DiscoverX KINOMEscan scanMAX)
# Experimental: as §1
# MST1 = target: T12, MST1 (Homo sapiens, UniProt Q13043)
# T12 construct: purchased Eurofins Discovery (DiscoverX KINOMEscan scanMAX)
# Experimental: as §1
# [4] = target: T13, JAK1(JH1domain-catalytic) (Homo sapiens, UniProt P23458)
# T13 construct: JAK1(JH1domain-catalytic); purchased Eurofins Discovery (DiscoverX KINOMEscan scanMAX)
# Experimental: as §1
# GSK3A = target: T14, GSK3A (Homo sapiens, UniProt P49840)
# T14 construct: purchased Eurofins Discovery (DiscoverX KINOMEscan scanMAX)
# Experimental: as §1
# PIK3CA = target: T15, PIK3CA (Homo sapiens, UniProt P42336)
# T15 construct: purchased Eurofins Discovery (DiscoverX KINOMEscan scanMAX)
# T15 sequence (P42336 whole entry): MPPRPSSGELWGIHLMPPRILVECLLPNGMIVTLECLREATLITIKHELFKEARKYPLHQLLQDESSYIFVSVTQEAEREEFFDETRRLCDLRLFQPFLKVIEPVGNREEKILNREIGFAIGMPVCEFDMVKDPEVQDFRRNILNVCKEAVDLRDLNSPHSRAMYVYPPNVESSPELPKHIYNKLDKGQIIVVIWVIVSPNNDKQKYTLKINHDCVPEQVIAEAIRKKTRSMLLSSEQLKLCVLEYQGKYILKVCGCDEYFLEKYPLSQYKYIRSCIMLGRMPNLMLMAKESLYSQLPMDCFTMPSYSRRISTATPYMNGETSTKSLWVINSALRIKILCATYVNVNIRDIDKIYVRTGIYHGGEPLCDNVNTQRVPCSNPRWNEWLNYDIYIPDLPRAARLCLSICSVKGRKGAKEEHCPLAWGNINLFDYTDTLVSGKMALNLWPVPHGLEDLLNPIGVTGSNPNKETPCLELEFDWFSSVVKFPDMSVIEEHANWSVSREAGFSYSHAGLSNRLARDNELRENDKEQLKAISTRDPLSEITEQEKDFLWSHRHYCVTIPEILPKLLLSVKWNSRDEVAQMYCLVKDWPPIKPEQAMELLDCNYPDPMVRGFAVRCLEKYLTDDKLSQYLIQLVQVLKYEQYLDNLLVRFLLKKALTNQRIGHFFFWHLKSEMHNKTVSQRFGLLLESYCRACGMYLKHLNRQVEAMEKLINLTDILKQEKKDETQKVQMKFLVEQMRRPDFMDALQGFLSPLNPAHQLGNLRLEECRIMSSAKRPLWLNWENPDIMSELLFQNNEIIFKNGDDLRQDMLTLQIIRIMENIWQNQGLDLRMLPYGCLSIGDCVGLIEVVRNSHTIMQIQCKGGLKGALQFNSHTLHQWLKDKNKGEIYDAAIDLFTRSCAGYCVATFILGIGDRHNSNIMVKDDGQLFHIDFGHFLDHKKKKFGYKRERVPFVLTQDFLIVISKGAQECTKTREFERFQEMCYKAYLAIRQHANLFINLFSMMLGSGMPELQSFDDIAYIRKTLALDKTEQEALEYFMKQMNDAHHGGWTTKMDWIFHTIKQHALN
# Experimental: as §1
# YANK3 = target: T16, YANK3 (Homo sapiens, UniProt Q86UX6)
# T16 construct: purchased Eurofins Discovery (DiscoverX KINOMEscan scanMAX)
# Experimental: as §1
# PIK3C2B = target: T17, PIK3C2B (Homo sapiens, UniProt O00750)
# T17 construct: purchased Eurofins Discovery (DiscoverX KINOMEscan scanMAX)
# Experimental: as §1
# FLT4 = target: T18, FLT4 (Homo sapiens, UniProt P35916)
# T18 construct: purchased Eurofins Discovery (DiscoverX KINOMEscan scanMAX)
# T18 sequence (P35916 25-1363): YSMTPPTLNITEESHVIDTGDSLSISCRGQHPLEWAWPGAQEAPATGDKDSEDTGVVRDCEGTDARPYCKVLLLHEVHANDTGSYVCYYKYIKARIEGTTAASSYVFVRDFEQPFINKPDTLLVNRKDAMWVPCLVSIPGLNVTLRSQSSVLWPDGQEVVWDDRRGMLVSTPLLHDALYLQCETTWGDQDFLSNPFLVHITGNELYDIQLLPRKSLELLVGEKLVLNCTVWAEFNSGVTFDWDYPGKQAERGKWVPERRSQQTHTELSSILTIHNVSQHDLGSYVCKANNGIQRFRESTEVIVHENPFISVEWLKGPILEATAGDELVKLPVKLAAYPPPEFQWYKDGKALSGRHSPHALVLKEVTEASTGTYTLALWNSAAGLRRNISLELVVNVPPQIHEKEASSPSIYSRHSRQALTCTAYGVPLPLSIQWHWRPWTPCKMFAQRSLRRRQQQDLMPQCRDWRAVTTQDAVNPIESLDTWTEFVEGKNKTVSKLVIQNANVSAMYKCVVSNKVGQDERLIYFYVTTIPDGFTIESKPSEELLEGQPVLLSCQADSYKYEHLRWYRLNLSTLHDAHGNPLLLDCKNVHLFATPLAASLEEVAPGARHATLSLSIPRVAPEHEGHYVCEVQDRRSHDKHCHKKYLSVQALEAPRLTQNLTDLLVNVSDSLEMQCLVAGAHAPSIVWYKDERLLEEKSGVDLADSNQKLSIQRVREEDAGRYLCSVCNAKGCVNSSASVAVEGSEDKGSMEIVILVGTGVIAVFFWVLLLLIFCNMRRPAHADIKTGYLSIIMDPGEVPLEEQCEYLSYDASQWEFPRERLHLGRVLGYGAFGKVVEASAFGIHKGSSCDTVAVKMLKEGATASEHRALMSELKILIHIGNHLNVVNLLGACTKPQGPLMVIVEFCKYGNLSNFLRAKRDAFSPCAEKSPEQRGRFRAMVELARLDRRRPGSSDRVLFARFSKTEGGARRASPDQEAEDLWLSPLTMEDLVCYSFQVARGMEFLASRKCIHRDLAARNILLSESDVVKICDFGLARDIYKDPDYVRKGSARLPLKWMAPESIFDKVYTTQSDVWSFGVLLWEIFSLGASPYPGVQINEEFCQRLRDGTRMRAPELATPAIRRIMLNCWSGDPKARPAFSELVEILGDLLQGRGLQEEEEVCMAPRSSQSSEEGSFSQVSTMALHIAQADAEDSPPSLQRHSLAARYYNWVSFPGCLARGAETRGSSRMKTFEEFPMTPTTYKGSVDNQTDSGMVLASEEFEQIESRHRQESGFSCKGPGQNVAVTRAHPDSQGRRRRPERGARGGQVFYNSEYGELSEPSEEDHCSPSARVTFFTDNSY
# Experimental: as §1
# NIK = target: T19, NIK (Homo sapiens, UniProt Q99558)
# T19 construct: purchased Eurofins Discovery (DiscoverX KINOMEscan scanMAX)
# Experimental: as §1
# FLT3(K663Q) = target: T20, FLT3(K663Q) (Homo sapiens, UniProt P36888, K663Q)
# T20 construct: purchased Eurofins Discovery (DiscoverX KINOMEscan scanMAX)
# Experimental: as §1
# DDR1 = target: T21, DDR1 (Homo sapiens, UniProt Q08345)
# T21 construct: purchased Eurofins Discovery (DiscoverX KINOMEscan scanMAX)
# T21 sequence (Q08345 19-913): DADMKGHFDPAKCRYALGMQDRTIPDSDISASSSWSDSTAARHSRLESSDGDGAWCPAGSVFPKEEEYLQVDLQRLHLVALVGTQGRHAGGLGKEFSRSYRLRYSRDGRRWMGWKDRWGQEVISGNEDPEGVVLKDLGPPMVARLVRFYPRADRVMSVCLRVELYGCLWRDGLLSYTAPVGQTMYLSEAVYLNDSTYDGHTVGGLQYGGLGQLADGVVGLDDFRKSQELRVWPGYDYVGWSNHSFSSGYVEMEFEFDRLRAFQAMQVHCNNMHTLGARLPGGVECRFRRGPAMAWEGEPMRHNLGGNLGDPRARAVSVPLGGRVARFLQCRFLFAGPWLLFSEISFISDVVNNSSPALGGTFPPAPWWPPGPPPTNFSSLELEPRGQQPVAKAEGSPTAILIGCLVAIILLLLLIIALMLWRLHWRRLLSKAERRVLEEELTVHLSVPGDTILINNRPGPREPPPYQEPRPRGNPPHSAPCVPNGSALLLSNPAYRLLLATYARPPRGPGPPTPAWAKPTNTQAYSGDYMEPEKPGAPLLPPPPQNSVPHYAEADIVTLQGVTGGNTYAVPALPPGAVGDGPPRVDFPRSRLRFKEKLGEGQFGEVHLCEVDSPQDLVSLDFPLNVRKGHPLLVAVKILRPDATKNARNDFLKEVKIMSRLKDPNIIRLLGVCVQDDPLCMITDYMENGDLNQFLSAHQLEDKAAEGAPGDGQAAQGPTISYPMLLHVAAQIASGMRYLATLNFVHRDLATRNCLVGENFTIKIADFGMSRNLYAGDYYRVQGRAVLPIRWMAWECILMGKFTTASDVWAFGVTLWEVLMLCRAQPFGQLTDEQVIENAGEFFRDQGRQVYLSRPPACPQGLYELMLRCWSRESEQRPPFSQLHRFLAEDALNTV
# Experimental: as §1
# IKK-alpha = target: T22, IKK-alpha (Homo sapiens, UniProt O15111)
# T22 construct: purchased Eurofins Discovery (DiscoverX KINOMEscan scanMAX)
# Experimental: as §1
# [5] = target: T23, ABL1(F317L)-phosphorylated (Homo sapiens, UniProt P00519, F317L)
# T23 construct: purchased Eurofins Discovery (DiscoverX KINOMEscan scanMAX)
# Experimental: as §1
# MEK3 = target: T24, MEK3 (Homo sapiens, UniProt P46734)
# T24 construct: purchased Eurofins Discovery (DiscoverX KINOMEscan scanMAX)
# T24 sequence (P46734 whole entry): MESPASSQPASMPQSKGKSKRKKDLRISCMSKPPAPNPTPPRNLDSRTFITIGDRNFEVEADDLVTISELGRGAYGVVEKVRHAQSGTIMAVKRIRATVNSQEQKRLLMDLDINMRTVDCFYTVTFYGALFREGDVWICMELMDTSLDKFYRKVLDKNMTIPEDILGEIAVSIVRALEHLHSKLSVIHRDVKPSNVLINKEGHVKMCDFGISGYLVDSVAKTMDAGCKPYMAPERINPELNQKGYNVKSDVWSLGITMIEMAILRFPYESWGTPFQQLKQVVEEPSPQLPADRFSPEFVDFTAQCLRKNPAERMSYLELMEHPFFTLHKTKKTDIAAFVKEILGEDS
# Experimental: as §1
# MAP3K15 = target: T25, MAP3K15 (Homo sapiens, UniProt Q6ZN16)
# T25 construct: purchased Eurofins Discovery (DiscoverX KINOMEscan scanMAX)
# Experimental: as §1
# BLK = target: T26, BLK (Homo sapiens, UniProt P51451)
# T26 construct: purchased Eurofins Discovery (DiscoverX KINOMEscan scanMAX)
# Experimental: as §1
# INSRR = target: T27, INSRR (Homo sapiens, UniProt P14616)
# T27 construct: purchased Eurofins Discovery (DiscoverX KINOMEscan scanMAX)
# Experimental: as §1
# ERBB3 = target: T28, ERBB3 (Homo sapiens, UniProt P21860)
# T28 construct: purchased Eurofins Discovery (DiscoverX KINOMEscan scanMAX)
# Experimental: as §1
# ACVR1 = target: T29, ACVR1 (Homo sapiens, UniProt Q04771)
# T29 construct: purchased Eurofins Discovery (DiscoverX KINOMEscan scanMAX)
# T29 sequence (Q04771 21-509): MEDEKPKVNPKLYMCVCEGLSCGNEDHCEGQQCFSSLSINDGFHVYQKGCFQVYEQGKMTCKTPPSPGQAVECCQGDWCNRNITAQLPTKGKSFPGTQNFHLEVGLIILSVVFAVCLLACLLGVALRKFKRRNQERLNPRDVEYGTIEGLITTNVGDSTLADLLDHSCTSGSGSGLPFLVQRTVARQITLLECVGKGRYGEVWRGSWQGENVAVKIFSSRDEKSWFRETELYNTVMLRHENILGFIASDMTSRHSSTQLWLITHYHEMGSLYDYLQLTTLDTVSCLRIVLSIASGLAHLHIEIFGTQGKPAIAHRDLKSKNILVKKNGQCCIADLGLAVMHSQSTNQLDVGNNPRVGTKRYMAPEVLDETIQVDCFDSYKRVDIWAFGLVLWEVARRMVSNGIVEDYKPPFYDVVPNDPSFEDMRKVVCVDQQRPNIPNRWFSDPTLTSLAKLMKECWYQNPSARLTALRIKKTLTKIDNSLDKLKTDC
# Experimental: as §1
# WNK4 = target: T30, WNK4 (Homo sapiens, UniProt Q96J92)
# T30 construct: purchased Eurofins Discovery (DiscoverX KINOMEscan scanMAX)
# Experimental: as §1
# MRCKA = target: T31, MRCKA (Homo sapiens, UniProt Q5VT25)
# T31 construct: purchased Eurofins Discovery (DiscoverX KINOMEscan scanMAX)
# Experimental: as §1
# KIT = target: T32, KIT (Homo sapiens, UniProt P10721)
# T32 construct: purchased Eurofins Discovery (DiscoverX KINOMEscan scanMAX)
# Experimental: as §1
structure (smiles),measurement,setting,value
Cc1cc(Nc2ccc(F)c(CC3(C(=O)N4CCC(F)(CN5CCN(c6ccc(N7CCC(=O)NC7=O)cn6)CC5)CC4)CCN(Cc4cccc(Cl)c4F)CC3)n2)n[nH]1 [SK5527],remaining binding at 0.1 µM,CLK2; 100 nM,88%
same,remaining binding at 1 µM,CLK2; 1000 nM,93%
same,remaining binding at 0.1 µM,LIMK1; 100 nM,88%
same,remaining binding at 1 µM,LIMK1; 1000 nM,96%
same,remaining binding at 0.1 µM,TRPM6; 100 nM,100%
same,remaining binding at 1 µM,TRPM6; 1000 nM,100%
same,remaining binding at 0.1 µM,MKNK1; 100 nM,84%
same,remaining binding at 1 µM,MKNK1; 1000 nM,92%
same,remaining binding at 0.1 µM,RIOK3; 100 nM,96%
same,remaining binding at 1 µM,RIOK3; 1000 nM,82%
same,remaining binding at 0.1 µM,PRKCD; 100 nM,100%
same,remaining binding at 1 µM,PRKCD; 1000 nM,100%
same,remaining binding at 0.1 µM,[1]; 100 nM,100%
same,remaining binding at 1 µM,[1]; 1000 nM,100%
same,remaining binding at 0.1 µM,[2]; 100 nM,93%
same,remaining binding at 1 µM,[2]; 1000 nM,79%
same,remaining binding at 0.1 µM,[3]; 100 nM,81%
same,remaining binding at 1 µM,[3]; 1000 nM,65%
same,remaining binding at 0.1 µM,RET; 100 nM,88%
same,remaining binding at 1 µM,RET; 1000 nM,39%
same,remaining binding at 0.1 µM,PCTK2; 100 nM,100%
same,remaining binding at 1 µM,PCTK2; 1000 nM,100%
same,remaining binding at 0.1 µM,MST1; 100 nM,100%
same,remaining binding at 1 µM,MST1; 1000 nM,100%
same,remaining binding at 0.1 µM,[4]; 100 nM,82%
same,remaining binding at 1 µM,[4]; 1000 nM,93%
same,remaining binding at 0.1 µM,GSK3A; 100 nM,100%
same,remaining binding at 1 µM,GSK3A; 1000 nM,94%
same,remaining binding at 0.1 µM,PIK3CA; 100 nM,94%
same,remaining binding at 1 µM,PIK3CA; 1000 nM,90%
same,remaining binding at 0.1 µM,YANK3; 100 nM,86%
same,remaining binding at 1 µM,YANK3; 1000 nM,80%
same,remaining binding at 0.1 µM,PIK3C2B; 100 nM,99%
same,remaining binding at 1 µM,PIK3C2B; 1000 nM,91%
same,remaining binding at 0.1 µM,FLT4; 100 nM,76%
same,remaining binding at 1 µM,FLT4; 1000 nM,40%
same,remaining binding at 0.1 µM,NIK; 100 nM,100%
same,remaining binding at 1 µM,NIK; 1000 nM,88%
same,remaining binding at 0.1 µM,FLT3(K663Q); 100 nM,81%
same,remaining binding at 1 µM,FLT3(K663Q); 1000 nM,79%
same,remaining binding at 0.1 µM,DDR1; 100 nM,98%
same,remaining binding at 1 µM,DDR1; 1000 nM,93%
same,remaining binding at 0.1 µM,IKK-alpha; 100 nM,100%
same,remaining binding at 1 µM,IKK-alpha; 1000 nM,100%
same,remaining binding at 0.1 µM,[5]; 100 nM,92%
same,remaining binding at 1 µM,[5]; 1000 nM,68%
same,remaining binding at 0.1 µM,MEK3; 100 nM,100%
same,remaining binding at 1 µM,MEK3; 1000 nM,82%
same,remaining binding at 0.1 µM,MAP3K15; 100 nM,100%
same,remaining binding at 1 µM,MAP3K15; 1000 nM,81%
same,remaining binding at 0.1 µM,BLK; 100 nM,97%
same,remaining binding at 1 µM,BLK; 1000 nM,45%
same,remaining binding at 0.1 µM,INSRR; 100 nM,97%
same,remaining binding at 1 µM,INSRR; 1000 nM,90%
same,remaining binding at 0.1 µM,ERBB3; 100 nM,100%
same,remaining binding at 1 µM,ERBB3; 1000 nM,100%
same,remaining binding at 0.1 µM,ACVR1; 100 nM,68%
same,remaining binding at 1 µM,ACVR1; 1000 nM,70%
same,remaining binding at 0.1 µM,WNK4; 100 nM,80%
same,remaining binding at 1 µM,WNK4; 1000 nM,95%
same,remaining binding at 0.1 µM,MRCKA; 100 nM,100%
same,remaining binding at 1 µM,MRCKA; 1000 nM,93%
same,remaining binding at 0.1 µM,KIT; 100 nM,100%
same,remaining binding at 1 µM,KIT; 1000 nM,61%
